# Source: US20130273557A1 (priority 2010, published 2013)
# “Also recorded” adds a separate entry of the source.
# Legend:
# [1] = target: T1, intermediate- and large-conductance channel activity of PSI-mitochondria (Rattus norvegicus, UniProt P19511+Q06647); assay: Patch clamp recording of brain-derived PSI-mitochondria; type: biochemical
# T1 sequence (P19511 43-256): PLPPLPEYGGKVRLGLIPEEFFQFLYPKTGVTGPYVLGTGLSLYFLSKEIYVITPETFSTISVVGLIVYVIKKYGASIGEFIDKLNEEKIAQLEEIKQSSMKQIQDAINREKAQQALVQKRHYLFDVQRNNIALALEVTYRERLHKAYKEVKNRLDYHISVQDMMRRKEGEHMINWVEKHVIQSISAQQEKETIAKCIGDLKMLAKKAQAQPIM
# T1 sequence (Q06647 24-213): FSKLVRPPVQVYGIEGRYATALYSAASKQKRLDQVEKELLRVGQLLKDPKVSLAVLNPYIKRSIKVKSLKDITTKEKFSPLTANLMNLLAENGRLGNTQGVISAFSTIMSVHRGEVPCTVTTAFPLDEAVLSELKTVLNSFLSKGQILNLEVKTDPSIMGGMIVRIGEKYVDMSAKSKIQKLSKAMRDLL
# Method: Isolation of Brain-derived Mitochondria. Standard techniques were adapted for isolating brain-derived mitochondria. Mitochondria were stored in isolation buffer (IB) at −80° C. For PSI-mitochondria, male Sprague-Dawley rats (6 wo, ˜200 gm, 3-6 rats/group/condition, at least 2 different preparations/experimental paradigm) were injected with the ubiquitin proteasome inhibitor Z-Ile-Glu(OtBu)-Ala-Leu-al (PSI; Peptides International Inc, Kentucky, USA; s.c. every other day for 1 or 2 weeks; 6.0 mg/kg PSI in DMSO, or with DMSO, 200 μL/rat), and mitochondria isolated and stored as above.
# (§1) Reagents were rapidly perfused into the recording chamber.
# [2] = target: leak conductance of SMVs enriched in F1FO ATP synthase (complex V) (Rattus norvegicus, UniProt P19511+Q06647); assay: biochemical
# Method: as §1
# (§2) Giga-ohm seals were formed on SMVs using pipettes and solutions as above. Peak membrane conductance was measured as described above.
# [3] = system: leak conductance of urea-treated SMVs; assay: Patch clamp recordings of urea-treated SMVs (F1 removed); type: biochemical, rat
# Method: F1 subunits were removed from SMVs by adapting previously-established methods. 60 mg SMV's/1 mL IB was treated with 1 mL of […] for 5 min. on ice, then centrifuged at 21000×g for 10 min. The pellet was washed 3× in IB (centrifugation at 21000×g for 10 min) and stored in IB.
# as §2
# [4] = system: digitonin-treated cortical neurons; assay: ATP production following ADP pulse in digitonin-treated cortical neurons; type: cell-based, rat; conditions: dexpramipexole 30 μM
# citrate synthase = conditions: dexpramipexole 30 μM
# Method: Primary rat cortical cultures were incubated with digitonin (10 μg/ml) and rotenone (100 nM) for 45 minutes in MAS1 buffer prior to measurement of oxygen consumption rate (OCR) by a Seahorse® flux analyzer. […] Data are shown as a percentage of the control group OCR±SEM.
# C2C12 cells [5] = type: cell-based, mouse; conditions: dexpramipexole 30 μM or PSI 30 nM, 18 hr, relative to control
# Method: (§3) Data are presented as a percentage of the vehicle-treated control ±SEM (n=10 wells at each concentration). […] Experiments commenced 18 hr. after addition of drug. […] Data are presented as a percentage of the vehicle-treated control±SEM (n=14-17 wells for each group).
# (§4) The C2C12 mouse myoblast cell line (ATCC, Manasses, Va.) was cultured in Dulbecco's Modified Eagle Medium (DMEM; Gibco®; Carlsbad, Calif.) supplemented with 10% fetal bovine serum (FBS), 2 mM GlutaMax® and penicillin/streptomycin. Cells were maintained in 10% CO2 humidified at 37° C.
# (§5) Cellular viability was measured using CellTiter-Blue® (Promega Corp., Madison, Wis.) in black-walled optical imaging multiwell plates, and cellular ATP was measured using the CellTiter-Glo® (Promega Corp., Madison, Wis.) luminescence assay in opaque-walled multiwell plates according to the manufacturer's protocol.
# C2C12 cells [6] = conditions: mouse, 18 h, 30 µM
# Method: as §3, §4, §5
# [7] = system: SH-SY5Y neuroblastoma cells; assay: PSI-induced cell death in SH-SY5Y cells (CellTiter-Blue)
# Method: Data shown represent mean±SEM. […] Bar graphs represent normalized mean±SEM. Cell viability was measured by CellTiter-Blue®; n=41-98 wells/condition.
# Undifferentiated SH-SY5Y human neuroblastoma cells (ATCC, Manasses, Va.) were maintained in humidified 5% CO2 in 1:1 Ham's F12 nutrient mixture with Glutamax® and Minimal Essential Medium with L-glutamine (MEM-Alpha), 10% FBS, and 1% penicillin/streptomycin (Gibco® Invitrogen Corp., Carlsbad, Calif.).
# as §5
# complex V (F1FO ATPase) = complex V (F1FO ATPase) (Rattus norvegicus, UniProt P19511+Q06647); conditions: concentration-dependent
# Method: ATP hydrolysis was also measured using an NADH-ATP-synthase kit (Mitosciences, USA; catalog #MS541), according to the manufacturer's protocol with modifications. SMVs were added 20 min. prior to addition of the reagent mix. The rate of change in […] over time as NADH was oxidized was measured as a decrease in absorbance at 340 nm.
# [8] = system: Ca^2+-induced ion conductance in mitochondria; conditions: 2 or 20 μM, in 100 μM Ca^2+
# Method: Patch-clamp recordings were made from de-energized mitochondria in intracellular solution (120 mM potassium chloride, 8 mM NaCl, 0.5 mM EGTA, 10 mM HEPES, pH adjusted to 7.3) at room temperature (22-25° C.). Pipettes (80-100M0) were filled with the same solution; recordings were made using a Heka 8 amplifier with Vm held at positive voltages up to +180 mV. Data were recorded at 20 kHz and filtered at 500-1000 Hz. […] Reagents were rapidly perfused into the recording chamber. Peak membrane conductance was measured as the peak amount of current (pA) from zero, converted to pS by assuming a linear I-V relationship. Discrete channel conductances were sorted by activity (% occurrence of a conductance level per unit time measured using pCLAMP 10 software, Molecular Devices, Sunnyvale, Calif.); levels defined as closed (no current), small (<200 pS), intermediate (>200 pS and <750 pS) and large (>750 pS). Mean open time (NPo; open time of discrete single channels times the apparent number of single channels in the patch) was used to assess drug effect
# [9] = target: human F1FO ATP synthase b subunit (Homo sapiens, UniProt P24539); conditions: co-incubation in 'cold' dexpramipexole (100 μM)
# From the text: (§6) The human ORF constructs for alpha, beta, b, c, delta, d, epsilon, gamma and OSCP ATP synthase subunits, tagged with Myc and DDK (Flag) tags were from Origene Technologies (Rockville, Md.). 293T cells were transfected with the above constructs, using the calcium phosphate method (Li et al. 2008). On day-3 post transfection, the cells were lysed and the fusion proteins were bound to the EZview™ Red ANTI-FLAG® M2 Affinity Gel (Sigma, USA), according to the manufacturer's protocol. The proteins were eluted from a portion of the samples and presence of the proteins on the beads was verified by immunoblot analysis, using the mouse anti-Myc antibodyies (Cell signaling Technology). […] They were spun at 3000×g in 0.45 um Spin-X centrifugal devices (Corning Life Sciences, USA) for 10 min. The samples were washed three times with PBS and the filter units were incubated in Ultima Gold scintillation liquid (Perkin Elmer Health Sciences, Inc.) overnight. Samples were counted for ^14C, using a Beckman Coulter LS 5000TD scintillation counter.
# [10] = target: human F1FO ATP synthase OSCP subunit (Homo sapiens, UniProt P48047); conditions: co-incubation in 'cold' dexpramipexole (100 μM)
# From the text: as §6
# [11] = system: G93A-SOD1 mutant mouse model of ALS; conditions: independent laboratory; cited from earlier work
# [12] = doses that should produce pharmacodynamically effective CNS concentrations; cited from earlier work
# Sequence of human F1FO ATP synthase b subunit (P24539 43-256): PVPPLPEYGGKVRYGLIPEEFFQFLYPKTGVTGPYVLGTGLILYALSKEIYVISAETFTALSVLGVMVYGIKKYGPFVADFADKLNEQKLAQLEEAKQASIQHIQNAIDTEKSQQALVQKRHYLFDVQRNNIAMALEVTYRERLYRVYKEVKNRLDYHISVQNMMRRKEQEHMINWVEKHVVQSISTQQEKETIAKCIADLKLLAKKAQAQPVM
# Sequence of human F1FO ATP synthase OSCP subunit (P48047 24-213): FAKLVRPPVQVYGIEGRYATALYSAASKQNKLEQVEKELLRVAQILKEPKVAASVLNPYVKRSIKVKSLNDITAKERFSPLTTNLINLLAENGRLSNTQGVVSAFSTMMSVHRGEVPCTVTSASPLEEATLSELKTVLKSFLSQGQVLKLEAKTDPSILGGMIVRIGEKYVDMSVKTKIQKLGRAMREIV
structure (smiles),measurement,setting,value
"CCCN[C@@H]1CCc2nc(N)sc2C1 [dexpramipexole, (6R)-4,5,6,7-tetrahydro-N-6-propyl-2,6-benzothiazole-diamine]",Hill slope of concentration-response curve,[1]; NPO inhibition in PSI-mitochondria,< 1
same,concentration for full inhibition of aberrant currents (EC100),[1]; PSI-mitochondria,> 10 µM
same,intermediate- and large-conductance channel activity,[1]; PSI-mitochondria,the inhibition was concentration-dependent and reversible
same,peak conductance,"[1]; dexpramipexole 2 μM, CSA 1 μM, PSI-mitochondria",significantly and reversibly decreased peak conductance
same,concentrations producing complete elimination of aberrant currents (EC100),[1]; level stated in discussion,10 to 30 µM
same,EC50,[2],111 nM
same,currents in SMVs,"[2]; high [Ca^2+], 2 μM dexpramipexole, 1.0 μM CSA",inhibited
same,leak conductance after removal of F1,[3],no longer inhibited the conductance
same,initial slope of ATP synthesis following an ADP pulse,[4],unchanged
same,maximal ATP levels,[4],unchanged
same,levels of citrate synthase,citrate synthase,unchanged
same,ATP levels,C2C12 cells [5],neither ATP levels nor cell viability (FIG. 5b) were significantly affected
same,cell viability,C2C12 cells [6],neither ATP levels nor cell viability (FIG. 5b) were significantly affected
same,cytoprotective concentrations,[7],≥ 10 µM
same,protection against PSI-induced cell death,[7]; pretreatment with dexpramipexole,protective; also recorded: inhibited PSI-induced cell death in a concentration-dependent manner
same,ATP hydrolysis (change in NADH signal),complex V (F1FO ATPase),significantly enhanced ATP hydrolysis
same,mitochondrial membrane currents,[8],effectively decreased
same,competition of ^14C-dexpramipexole binding to b subunit,[9],significantly reduced binding
same,competition of ^14C-dexpramipexole binding to OSCP subunit,[10],significantly reduced binding
same,in vivo survival,[11],significantly increased in vivo survival
same,safety and tolerability,[12],safe and well-tolerated
